Earlier results, collected in patent publication US20090197946A1, “COMPOSITION AND METHOD FOR TREATMENT OF INFLAMATION AND INFECTIONS OF THE GENITALIA, CONTRACEPTIVE AND THE PROPHYLAXIS OF SEXUALLY TRANSMITTED DISEASES” (priority 2008, published 2009).

Tests used:
[1] = in vivo
vaginal epithelium = details: topical, African commercial sex workers

Row | Compound | known potential side effects [1] | effect of frequent use on the vaginal epithelium (vaginal epithelium) | susceptibility to the HIV infection (vaginal epithelium; frequent use)
1 | CC(C)OC(=O)OCOP(=O)(CO[C@H](C)Cn1cnc2c(N)ncnc21)OCOC(=O)OC(C)C [Viread, Tenofovir] | nausea, diarrhea, vomiting and flatulence | – | –
2 | nonoxynol 9 | – | damaged the vaginal epithelium | increased their susceptibility to the HIV infection
